20 compounds from patent US6677368B2, “4-aryl substituted indolinones” (Sugen, Inc., priority 2000, dated 2004) can be followed below.

One may read the IC50 as the concentration that inhibits the measured activity by half. Lower therefore signals greater potency.

The target of this experiment is T1, FLK-1 (Mus musculus, UniProt P35918).
T1 construct: GST-Flklcd purified from sf9 recombinant baculovirus transfomnation (SUGEN, Inc.); host or cells: Sf9 insect cells, recombinant baculovirus
Briefly: GST-FLK-1 bioassay (tyrosine kinase activity on poly(glu-tyr)). It is filed as biochemical. The settings on record: GST-Flk1, poly(glu-tyr) substrate, 0.5 μM ATP. How it is done: This assay analyzes the tyrosine kinase activity of GST-Flk1 on poly(glu-tyr) peptides.
1. Corning 96-well ELISA plates (Corning Catalog No. 25805-96).
2. poly(glu-tyr) 4:1, lyophilizate (Sigma Catalog No. P0275), 1 mg/ml in sterile PBS.
3. PBS Buffer: for 1 L, mix 0.2 g KH2PO4, 1.15 g Na2HPO4, 0.2 g KCl and 8 g NaCl in approx. 900 ml dH2O. When all reagents have dissolved, adjust the pH to 7.2 with HCl. Bring total volume to 1 L with dH2O.
4. PBST Buffer: to 1 L of PBS Buffer, add 1.0 ml Tween-20.
5. TBB—Blocking Buffer: for 1 L, mix 1.21 g TRIS, 8.77 g NaCl, 1 ml TWEEN-20 in approximately 900 ml dH2O. Adjust pH to 7.2 with HCl. Add 10 g BSA, stir to dissolve. Bring total volume to 1 L with dH2O. Filter to remove particulate matter.
6. 1% BSA in PBS: add 10 g BSA to approx. 990 ml PBS buffer, stir to dissolve. Adjust total volume to 1 L with PBS buffer, filter to remove particulate matter.
8. GST-Flklcd purified from sf9 recombinant baculovirus transfomnation (SUGEN, Inc.).
12. Kinase Dilution Buffer (KDB): mix 10 ml Hepes (pH 7.5), 1 ml 5M NaCl, 40 μL 100 mM sodium orthovanadate and 0.4 ml of 5% BSA in dH2O with 88.56 ml dH2O.
13. NUNC 96-well V bottom polypropylene plates, Applied Scientific Catalog #AS-72092
14. EDTA: mix 14.12 g ethylenediaminetetraacetic acid (EDTA) with approx. 70 ml dH2O. Add 10 N NaOH until EDTA dissolves. Adjust pH to 8.0. Adjust total volume to 100 ml with dH2O.
15. 1° and 2° Antibody Dilution Buffer: mix 10 ml of 5% BSA in PBS buffer with 89.5 ml TBST.
16. Anti-phosphotyrosine rabbit polyclonal antisera (SUGEN, Inc.)
17. Goat anti-rabbit HRP conjugate.
18. ABST solution: To approx. 900 ml dH2O add 19.21 g citric acid and 35.49 g Na2HPO4. Adjust pH to 4.0 with phosphoric acid. Add 2,2′-Azinobis(3-ethyl-benzthiazoline-6-sulfonic acid (ABTS, Sigma, Cat. No. A-1888, hold for approx. ½ hour, filter.
19. 30% Hydrogen Peroxide.
20. ABST/H2O2: add 3 μl of H2O2 to 15 ml of ABST solution.
1. Coat Corning 96-well ELISA plates with 2 μg of polyEY in 100 μl PBS/well, hold at room temperature for 2 hours or at […] overnight. Cover plates to prevent evaporation.
2. Remove unbound liquid from wells by inverting plate. Wash once with TBST. Pat the plate on a paper towel to remove excess liquid.
3. Add 100 μl of 1% BSA in PBS to each well. Incubate, with shaking, for 1 hr. at room temperature.
5. Soak wells with 50 mM HEPES (pH7.5, 150 μl/well).
6. Dilute test compound with dH2O/4% DMSO to 4 times the desired final assay concentration in 96-well polypropylene plates.
7. Add 25 μl diluted test compound to each well of ELISA plate. In control wells, place 25 μl of dH2O/4% DMSO.
8. Dilute GST-Flk1 0.005 μg (5 ng)/well in KDB.
9. Add 50 μl of diluted enzyme to each well.
10. Add 25 μl 0.5 M EDTA to negative control wells.
11. Add 25 μl of 40 mM MnCl2 with 4×ATP (2 μM) to all wells (100 μl final volume, 0.5 μM ATP final concentration in each well).
12. Incubate, with shaking, for 15 minutes at room temperature.
13. Stop reaction by adding 25 μl of 500 mM EDTA to each well.
14. Wash 3× with TBST and pat plate on paper towel to remove excess liquid.
15. Add 100 μl per well anti-phosphotyrosine antisera, 1:10,000 dilution in antibody dilution buffer. Incubate, with shaking, for 90 min. at room temperature.
17. Add 100 μl/well of goat anti-rabbit HRP conjugate (1:6,000 in antibody dilution buffer). Incubate, with shaking, for 90 minutes are room temperature.
19. Add 100 μl room temperature ABST/H2O2 solution to each well.
20. Incubate, with shaking for 15 to 30 minutes at room temperature.
21. If necessary, stop reaction by adding 100 μl of 0.2 M HCl to each well.
22. Read results on Dynatech MR7000 ELISA reader with test filter at 410 nM and reference filter at 630 nM.

T1 sequence (P35918 784-1345 limits assumed): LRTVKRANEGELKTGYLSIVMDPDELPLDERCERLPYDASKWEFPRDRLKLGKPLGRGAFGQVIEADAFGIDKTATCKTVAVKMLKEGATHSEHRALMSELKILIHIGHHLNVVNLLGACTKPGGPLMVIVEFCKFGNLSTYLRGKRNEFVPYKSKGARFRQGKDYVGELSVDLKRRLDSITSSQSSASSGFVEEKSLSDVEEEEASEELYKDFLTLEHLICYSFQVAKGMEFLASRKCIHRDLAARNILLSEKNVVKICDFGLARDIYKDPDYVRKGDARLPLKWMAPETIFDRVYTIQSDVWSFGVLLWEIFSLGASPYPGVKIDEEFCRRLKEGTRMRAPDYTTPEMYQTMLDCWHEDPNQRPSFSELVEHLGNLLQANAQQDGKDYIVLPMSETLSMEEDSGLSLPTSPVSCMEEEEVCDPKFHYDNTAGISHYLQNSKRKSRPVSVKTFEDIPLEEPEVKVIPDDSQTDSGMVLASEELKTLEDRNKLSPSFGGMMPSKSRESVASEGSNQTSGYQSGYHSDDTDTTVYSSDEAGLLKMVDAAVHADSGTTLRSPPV

Turning to `CCN(CC)CCNC(=O)c1c(C)[nH]c(/C=C2\C(=O)Nc3cccc(-c4cccc(Br)c4)c32)c1C` [Example 63, 5-[4-(3-Bromo-phenyl)-2-oxo-1,2-dihydro-indol-3-ylidenemethyl]-2,4-dimethyl-1H-pyrrole-3-carboxylic Acid (2-Diethylamino-ethyl)-amide], half-maximal inhibition (IC50) required 43 nM. As for `Cc1[nH]c(/C=C2\C(=O)Nc3cccc(-c4ccc(Br)cc4)c32)c(C)c1C(=O)N1CCN(C)CC1` [Example 53], the IC50 is 21 nM. Compound `CCN(CC)CCNC(=O)c1c(C)[nH]c(/C=C2\C(=O)Nc3cccc(-c4cccc(OC)c4)c32)c1C` [Example 46, 5-[4-(3-Methoxy-phenyl)-2-oxo-1,2-dihydro-indol-3-ylidenemethyl]-2,4-dimethyl-1H-pyrrole-3-carboxylic Acid (2-Diethylamino-ethyl)-amide] gave a concentration for half-maximal inhibition (IC50) of 9 nM.

In the case of `Cc1cc(C(=O)N2CC[C@H](N(C)C)C2)c(/C=C2\C(=O)Nc3cccc(-c4ccc(F)cc4)c32)[nH]1` [Example 10, 3-[3-((S)-3-Dimethylamino-pyrrolidine-1-carbonyl)-5-methyl-1H-pyrrol-2-ylmethylene]-4-(4-fluoro-phenyl)-1,3-dihydro-indol-2-one], the IC50 came out at 180 nM. `Cc1cc(C(=O)NCCN2CCCC2)c(/C=C2\C(=O)Nc3cccc(-c4ccc(F)c(Cl)c4)c32)[nH]1` [Example 119, 2-[4-(3-Chloro-4-fluoro-phenyl)-2-oxo-1,2-dihydro-indol-3-ylidenemethyl]-5-methyl-1H-pyrrole-3-carboxylic Acid (2-Pyrrolidin-1-yl-ethyl)-amide] returned a half-inhibitory concentration (IC50) of 180 nM.

As for `CCN(CC)CCNC(=O)c1c(C)[nH]c(/C=C2\C(=O)Nc3cccc(-c4ccc(OC(F)(F)F)cc4)c32)c1C` [Example 140, 2,4-Dimethyl-5-[2-oxo-4-(4-trifluoromethoxy-phenyl)-1,2-dihydro-indol-3-ylidenemethyl]-1H-pyrrole-3-carboxylic Acid (2-Diethylamino-ethyl)-amide], half-maximal inhibition (IC50) was put at 75 nM. On to `Cc1cc(C(=O)N2C[C@@H](C)N[C@@H](C)C2)c(/C=C2\C(=O)Nc3cccc(-c4cccc(Cl)c4)c32)[nH]1` [Example 35, 4-(3-Chloro-phenyl)-3-[3-((cis)-3,5-dimethyl-piperazine-1-carbonyl)-5-methyl-1H-pyrrol-2-ylmethylene]-1,3-dihydro-indol-2-one], for which half-maximal inhibition (IC50) was put at 92 nM. Turning to `COc1cccc(-c2cccc3c2/C(=C/c2[nH]c(C)c(C(=O)NCCN(C(C)C)C(C)C)c2C)C(=O)N3)c1` [Example 52, 5-[4-(3-Methoxy-phenyl)-2-oxo-1,2-dihydro-indol-3-ylidenemethyl]-2,4-dimethyl-1H-pyrrole-3-carboxylic Acid (2-Diisopropylamino-ethyl)-amide], the IC50 is 5 nM. In the case of `COc1ccc(-c2cccc3c2/C(=C/c2[nH]c(C)cc2C(=O)NCCN2CCCC2)C(=O)N3)cc1` [Example 41, 2-[4-(4-Methoxy-phenyl)-2-oxo-1,2-dihydro-indol-3-ylidenemethyl]-5-methyl-1H-pyrrole-3-carboxylic Acid (2-Pyrrolidin-1-yl-ethyl)-amide], the IC50 amounted to 79 nM. The compound `Cc1cc(C(=O)NCCn2ccnn2)c(/C=C2\C(=O)Nc3cccc(-c4cccc(Cl)c4)c32)[nH]1` [Example 34, 2-[4-(3-Chloro-phenyl)-2-oxo-1,2-dihydro-indol-3-ylidenemethyl]-5-methyl-1H-pyrrole-3-carboxylic Acid (2-[1,2,3]Triazol-1-yl-ethyl)-amide] yielded an IC50 of 1060 nM. As to `Cc1cc(C(=O)N2C[C@@H](C)N[C@@H](C)C2)c(/C=C2\C(=O)Nc3cccc(-c4ccc(Cl)cc4)c32)[nH]1` [Example 27], the IC50 turned out to be 170 nM. To `CCN(CC)CCNC(=O)c1c(C)[nH]c(/C=C2\C(=O)Nc3cccc(-c4ccccc4)c32)c1C` [Example 3, 2,4-Dimethyl-5-(2-oxo-4-phenyl-1,2-dihydro-indol-3-ylidenemethyl)-1H-pyrrole-3-carboxylic Acid (2-Diethylamino-ethyl)-amide] belongs 9 nM. Compound `Cc1[nH]c(/C=C2\C(=O)Nc3cccc(-c4cccc(C(F)(F)F)c4)c32)c(C)c1C(=O)N1CCN(C)CC1` [Example 104, 3-[3,5-Dimethyl-4-(4-methyl-piperazine-1-carbonyl)-H-pyrrol-2-ylmethylene]-4-(3-trifluoromethyl-phenyl)-1,3-dihydro-indol-2-one] showed an IC50 of 66 nM.

The compound `Cc1[nH]c(/C=C2\C(=O)Nc3cccc(-c4ccc(Cl)cc4)c32)c(C)c1C(=O)NCCN1CCCC1` [Example 22, 5-[4-(4-Chloro-phenyl)-2-oxo-1,2-dihydro-indol-3-ylidenemethyl]-2,4-dimethyl-1H-pyrrole-3-carboxylic Acid (2-Pyrrolidin-1-yl-ethyl)-amide] returned a concentration for half-maximal inhibition (IC50) of 16 nM. Under `CCN(CC)CCNC(=O)c1c[nH]c(/C=C2\C(=O)Nc3cccc(-c4ccc(Br)cc4)c32)c1C` [Example 61, 5-[4-(4-Bromo-phenyl)-2-oxo-1,2-dihydro-indol-3-ylidenemethyl]-4-methyl-1H-pyrrole-3-carboxylic Acid (2-Diethylamino-ethyl)-amide] stands 6 nM; under `Cc1cc(C(=O)NCCN2CCCC2)c(/C=C2\C(=O)Nc3cccc(-c4ccc(Br)cc4)c32)[nH]1` [Example 58, 2-[4-(4-Bromo-phenyl)-2-oxo-1,2-dihydro-indol-3-ylidenemethyl]-5-methyl-1H-pyrrole-3-carboxylic Acid (2-Pyrrolidin-1-yl-ethyl)-amide], 54 nM; under `Cc1[nH]c(/C=C2\C(=O)Nc3cccc(-c4ccc(Br)cc4)c32)c(C)c1C(=O)N1C[C@@H](C)N[C@@H](C)C1` [Example 57, 4-(4-Bromo-phenyl)-3-[4-[(cis)-3,5-dimethyl-piperazine-1-carbonyl)-3,5-dimethyl-1H-pyrrol-2-ylmethylene]-1,3-dihydro-indol-2-one], 29 nM. For `Cc1[nH]c(/C=C2\C(=O)Nc3cccc(-c4ccc(F)cc4)c32)c(C)c1C(=O)N1CCN(C)CC1` [Example 4, 3-[3,5-Dimethyl-4-(4-methyl-piperazine-1-carbonyl)-1H-pyrrol-2-ylmethylene]-4-(4-fluoro-phenyl)-1,3-dihydro-indol-2-one], 74 nM corresponded to half-maximal inhibition (IC50).

Consider `Cc1cc(C(=O)N2CC[C@H](N(C)C)C2)c(/C=C2\C(=O)Nc3cccc(-c4cccc(Cl)c4)c32)[nH]1` [Example 32, 4-(3-Chloro-phenyl)-3-[3-((S)-3-dimethylamino-pyrrolidine-1-carbonyl)-5-methyl-1H-pyrrol-2-ylmethylene]-1,3-dihydro-indol-2-one], for which the IC50 was 51 nM. `COc1cccc(-c2cccc3c2/C(=C/c2[nH]c(C)c(C(=O)NCCn4ccnn4)c2C)C(=O)N3)c1` [Example 48, 5-[4-(3-Methoxy-phenyl)-2-oxo-1,2-dihydro-indol-3-ylidenemethyl]-2,4-dimethyl-1H-pyrrole-3-carboxylic Acid (2-[1,2,3]Triazol-1-yl-ethyl)-amide] yielded an IC50 of 12 nM.
